PubChem BioAssay AID540269 (Sanford-Burnham Center for Chemical Genomics, 2011)
Calls of active or inactive are those of the source. The rule behind the calls is not given here.

Molecular target: glucose-6-phosphate dehydrogenase-6-phosphogluconolactonase (Plasmodium falciparum 3D7)
Test: inhibition of P. falciparum G6PD activity – biochemical, kinetic NADPH detection, orthogonal assay, dose response (AID 540269)
Conditions: purified PfG6PD-6PGL

Row | SMILES | IC50
1 | COc1cc(N)c2ncsc2c1 | > 80 µM (inactive)
2 | Cc1ccc(/C=C/C(=O)NCC2COc3ccccc3O2)o1 (stereo unspecified) | > 80 µM (inactive)
3 | CCN1CCN(C(=S)c2ccc(Cl)c(Cl)c2)CC1 | > 80 µM (inactive)
4 | O=C(COc1ccccc1F)OCC(=O)c1ccc([N+](=O)[O-])cc1 | > 80 µM (inactive)
5 | COc1ccc(Nc2cc(C)c3c(O)cccc3n2)cc1 | > 80 µM (inactive)
6 | COc1cc(NCc2ccccc2O)c2ncccc2c1 | 35 µM
7 | O=C(Nc1nc(-c2ccncc2)cs1)C1COc2ccccc2O1 (stereo unspecified) | 22.4 µM
8 | O=[N+]([O-])c1ccc(Sc2cccc3cccnc23)c2cccnc12 | > 80 µM (inactive)
9 | O=C(CCl)NCCN1C(=O)S/C(=C\c2cccnc2)C1=O | > 80 µM (inactive)
10 | COc1ccc(C(=O)ON=C2C=C(C)C(=O)C(C)=C2)cc1 | > 80 µM (inactive)
11 | O=C(CCC(=O)OCC(=O)c1ccc([N+](=O)[O-])cc1)Nc1ccccc1Cl | > 80 µM (inactive)
12 | CC(Cc1ccc(O)c(O)c1)C(C)Cc1ccc(O)c(O)c1 (stereo unspecified) | 54.9 µM
13 | COc1cc(NCc2ccccc2)c2ncn(C(C)C)c2c1 | > 80 µM (inactive)
14 | CCOC(=O)C1CCCN(C(=O)Cn2sc3nc(C)cc(C)c3c2=O)C1 (stereo unspecified) | 50.7 µM
15 | Nc1cc(N)c(OCC(F)(F)F)cc1OCC(F)(F)F | > 80 µM (inactive)
16 | COc1cc(CN2CCN(CCCc3ccccc3)C(CCO)C2)cc(OC)c1O (stereo unspecified) | > 80 µM (inactive)
17 | O=c1c2ccc(F)cc2sn1-c1ccccc1 | 15.4 µM
18 | c1ccc(-c2cn3c(n2)CCc2ccc4cccnc4c2-3)cc1 | > 80 µM (inactive)
19 | COc1cc(O)c(C(=O)O)c(-c2cc(O)c(O)cc2C)c1 | 19.4 µM
20 | COc1cc(/C=C2\SC(c3ccc(C)cc3)=NC2=O)ccc1O | > 80 µM (inactive)
21 | O=c1c2ccccc2sn1-c1ccccc1 | 9.73 µM
22 | O=C1C=C(NCCc2cc(Br)c(O)c(Br)c2)C(=O)c2ncccc21 | > 80 µM (inactive)
23 | C=CCOc1c(Cl)cc(CNc2ccc(N(C)C)cc2)cc1OC | 61.5 µM
24 | O=S(=O)(NCc1csc(-c2ccccc2)n1)c1ccc(Cl)s1 | > 80 µM (inactive)
25 | NS(=O)(=O)c1ccc(N/N=C/c2ccc(O)c(O)c2O)c([N+](=O)[O-])c1 | > 80 µM (inactive)
26 | CN(C)Cc1cc(O)c(CN(C)C)cc1O | 25.6 µM

Row | SMILES | IC50
27 | COc1ccc(CCn2c(NN=C3CCCC3)nc3c2c(=O)[nH]c(=O)n3C)cc1 | > 80 µM (inactive)
28 | Cc1ccc(S(=O)(=O)Oc2cccc(/C=N/Nc3ccc(C(=O)O)cc3)c2)cc1 | 41.4 µM
29 | O=C1C=CC(=O)N1c1ccc2c(c1)C(NC(=O)C(F)(F)F)c1ccccc1-2 (stereo unspecified) | > 80 µM (inactive)
30 | CC1(C)CC2(CC(c3ccccc3F)c3ccc(O)c(O)c3O2)NC(=S)N1 (stereo unspecified) | 45.8 µM
31 | CN1CCN(C(=S)c2ccc([N+](=O)[O-])cc2)CC1 | > 80 µM (inactive)
32 | Cc1cc(O)c(C(C)C)cc1N=Cc1ccc([N+](=O)[O-])cc1 | > 80 µM (inactive)
33 | NS(=O)(=O)c1ccc(-c2ccc(C=C3C(=O)NC(=O)NC3=O)o2)cc1 | 40.2 µM
34 | Oc1ccc(C23CC4CC(CC(C4)C2)C3)cc1O | 37.8 µM
35 | COCCNC(=S)Nc1ccc(N2CCOCC2)c(S(=O)(=O)Nc2ccc(Cl)cc2)c1 | > 80 µM (inactive)
36 | O=C(Nc1nnc(S(=O)(=O)N2CCCCCC2)s1)c1cccc(Br)c1 | 14.1 µM
37 | CCOc1ccccc1NS(=O)(=O)c1c(C)noc1C | > 80 µM (inactive)
38 | CCOC(=O)c1c(C)n(-c2ccc(C)cc2)c2c(C(C(C)=O)C(=O)O)c(Br)c(O)c(O)c12 (stereo unspecified) | 57.4 µM
39 | CCOC(=O)Nc1ccc(NCc2ccc(F)cc2)nc1N | > 80 µM (inactive)
40 | CN=c1scc(C)n1/N=C/c1ccc(O)c(O)c1O | 24.8 µM
41 | O=C(COc1cccc2ccccc12)Nc1ccc(Cl)cc1C(=O)O | 33.7 µM
42 | CSc1nnc(NC(=O)c2ccc3c(c2)OCO3)s1 | 27.1 µM
43 | O=C(CNC(=O)c1ccccc1)NCC(=O)OCC(=O)c1ccc([N+](=O)[O-])cc1 | 67.1 µM
44 | OCCN1CCN(C(=S)c2ccc(-c3ccccc3)cc2)CC1 | > 80 µM (inactive)
45 | O=C1C=CC(=O)N1CCCCCCCCCCN1C(=O)C=CC1=O | > 80 µM (inactive)
46 | Nc1c(C(=O)Nc2ccc(F)cc2)sc(=S)n1-c1ccccc1F | > 80 µM (inactive)
47 | CC(C)c1nnc(NC(=O)c2cccc(-n3cnnn3)c2)s1 | 27.4 µM
48 | Cc1ccc(-c2c(C(=O)N/N=C/c3ccsc3)nnn2-c2nonc2N)cc1 | 64.8 µM
49 | CC(=O)Nc1cc2c(cc1[N+](=O)[O-])-c1ccccc1C2O (stereo unspecified) | > 80 µM (inactive)
50 | O=[N+]([O-])c1c(NCCO)cc(Sc2nc3ccccc3s2)c2nonc12 | > 80 µM (inactive)
51 | CCc1ccc(OCC(=O)N/N=C/c2cc([N+](=O)[O-])ccc2N2CCOCC2)cc1 | > 80 µM (inactive)
52 | O=C(CNC(=O)c1ccc(Br)cc1)NCC(=O)OCC(=O)c1ccc([N+](=O)[O-])cc1 | > 80 µM (inactive)

Row | SMILES | IC50
53 | Cc1ccc(-n2sc3cc(F)ccc3c2=O)c(C)c1 | 12.5 µM
54 | Cc1cc(C)c2c(=O)n(CC(=O)Nc3ccc(Cl)cc3)sc2n1 | > 80 µM (inactive)
55 | CCCN1CCc2cccc3c2[C@H]1Cc1ccc(O)c(O)c1-3 | > 80 µM (inactive)
56 | Cc1cccc(C(=O)Nc2nnc(S(=O)(=O)N3CCOCC3)s2)c1 | 59.4 µM
57 | CC(=O)Nc1ccc2c(c1)Cc1cc(N3C(=O)C=CC3=O)ccc1-2 | 27.2 µM
58 | CC1COCC(C)N1C1=C(Cl)C(=O)c2ccccc2C1=O (stereo unspecified) | 42.4 µM
59 | COc1ccc(S(=O)(=O)/N=C2\C=C(Nc3ccc(O)cc3)C(=O)c3ccccc32)cc1 | > 80 µM (inactive)
60 | O=C1NC(=O)C(=Cc2ccc(-c3ccccc3[N+](=O)[O-])o2)C(=O)N1 | 69.9 µM
61 | O=[N+]([O-])c1ccc(-[n+]2ccc3ccccc3c2)c([N+](=O)[O-])c1 | > 80 µM (inactive)
62 | O=C(CSc1nc2ccc(Cl)cc2[nH]1)NC1CCCc2ccccc21 (stereo unspecified) | > 80 µM (inactive)
63 | Cc1ccccc1OCC(=O)NCC(=O)OCC(=O)c1ccc([N+](=O)[O-])cc1 | 67.4 µM
64 | COc1ccc(C(=O)Nc2sc3c(c2C(=O)O)CC(C)(C)OC3)cc1 | 40.6 µM
65 | O=C(O)CSc1cc(NS(=O)(=O)c2cccc([N+](=O)[O-])c2)c2ccccc2c1O | > 80 µM (inactive)
66 | O=C(O)CSc1cc(NS(=O)(=O)c2ccc(Cl)cc2)c2ccccc2c1O | 46.3 µM
67 | COc1cc(C(=O)O/N=C2/C=C(C)C(=O)C=C2C)cc(OC)c1OC | > 80 µM (inactive)
68 | O=C1NC(=S)NC(=O)C1=Cc1ccc(Br)s1 | > 80 µM (inactive)
69 | COc1ccc(C(=O)Nc2nnc(S(=O)(=O)N3CCOCC3)s2)cc1 | 32.8 µM
70 | CCOc1cc(NCc2ccccc2)c2ncn(C(C)C)c2c1 | > 80 µM (inactive)
71 | COc1cccc(CNc2ccc3[nH]c(=O)[nH]c3c2)c1OCc1ccccc1Cl | > 80 µM (inactive)
72 | CCOC(=O)c1c(OCC)[nH]c2c1cc(O)c1ccccc12 | > 80 µM (inactive)
73 | [O-]/[N+](=C\c1ccccc1)c1ccc(Br)cc1 | > 80 µM (inactive)
74 | Nc1ccc(S(=O)(=O)c2cc(O)c3ccccc3c2O)cc1 | > 80 µM (inactive)
75 | O=c1c2cc(F)ccc2sn1-c1ccc(F)cc1 | 23.4 µM
76 | COc1ccc(N2CSC3=C(C#N)C(c4ccc(OC)c(OC)c4)CC(=O)N3C2)c(OC)c1 (stereo unspecified) | > 80 µM (inactive)
